{"source": "patent US11400063B2", "about": "“Early administration of low-dose colchicine after myocardial infarction” (INSTITUT DE CARDIOLOGIE DE MONTREAL, priority 2019, dated 2022)", "system": "patients recruited within 30 days after a myocardial infarction", "assay": "COLCOT time-to-treatment initiation (TTI) analysis", "type": "in vivo, human", "protocol": "The results of the COLCOT trial have been further analyzed to determine if time to treatment initiation (TTI) had any effect on the outcome of the treatment. Three different cutoffs for TTI were used in order to determine the association between early initiation of therapy and clinical outcomes. These cutoffs were determined based on the usual journey of patients with MI. The first 30-day post-MI timeline was divided into three independent periods of time, and analyzed as such: from day 0 to 3, referring to in-hospital management; from day 4 to 7, referring to early post-discharge period and from day 8 to 30, referring to late post-discharge period.\nCOLCOT was an international multicenter, randomized, double-blinded trial that randomly assigned patients to receive either low-dose colchicine (0.5 mg once daily) or placebo. The study protocol and main results have been published (see, Tardif et al., N Engl J Med 2019). […] Main exclusion criteria were severe heart failure, reduced left ventricular ejection fraction (<35%), recent stroke (<3 months), type 2 MI, recent (<3 years) or planned coronary artery bypass graft (CABG), history of cancer (<3 years), and inflammatory bowel disease or chronic diarrhea. All patients enrolled in the trial benefited from percutaneous coronary intervention whenever indicated and guidelines-directed management of CV disease prior to randomization (see. Tardif et al., N Engl J Med 2019).\nThe primary efficacy endpoint was a composite of CV death, resuscitated cardiac arrest, MI, stroke, or urgent hospitalization for angina requiring coronary revascularization. The secondary endpoints consisted of the components of the primary efficacy endpoint, all-cause death, and a composite of CV death, resuscitated cardiac arrest, MI, or stroke. Exploratory endpoints included all coronary revascularizations, including both elective and urgent coronary revascularizations.\nThree different cutoffs for TTI were used in order to determine the association between early initiation of therapy and clinical outcomes. These cutoffs were determined based on the usual journey of patients with MI. The first 30-day post-MI timeline was divided into three independent periods of time, and analyzed as such: from day 0 to 3, referring to in-hospital management; from day 4 to 7, referring to early post-discharge period and from day 8 to 30, referring to late post-discharge period.\nBoth the TTI of less than 4 days and the TTI of less than 5 days was were calculated using a basic model (Table 4 and Table 6) as well as an adjusted model (Table 5 and Table 7) which is described below in the statistical analysis section. In all cases, the interaction p-value was not significant (p>0.05), meaning that the conclusion over Placebo vs. Colchicine group can be obtained directly from the respective p-values for HR. In other words, relationships within the placebo and colchicine groups with TTI are both linear/parallel and the interpretation is straightforward.\nFor the present TTI analysis, the data were centrally analyzed by an independent academic biostatistics center at the Montreal Health Innovations Coordinating Center. The analysis was conducted amongst patients who received at least one dose of the study medication (referred to as the safety population in the main protocol, FIG. 1). TTI was defined as the length of time in days between the index MI and the initiation of the study medication, and three specific cutoffs were analyzed ([…], days 4 to […]). Early initiation of therapy was defined as TTI≤3 days. Baseline characteristics were summarized using counts and percentages for categorical variables and mean±standard deviation (SD) for continuous variables. For each baseline characteristic, comparisons were made using ANOVA for continuous variables and Chi-Square test for categorical variables according to TTI strata. […]", "key": {"[1]": {"settings": "TTI 4-7 days, colchicine vs. placebo"}, "[2]": {"settings": "TTI ≥ 8 days, colchicine vs. placebo"}, "[3]": {"settings": "delay between randomization and index MI [0-4] days"}, "[4]": {"settings": "delay between randomization and index MI [0-5] days"}, "[5]": {"settings": "delay between randomization and index MI [5-30] days"}, "[6]": {"settings": "delay between randomization and index MI [6-30] days"}}}
{"smiles": "COc1cc2c(c(OC)c1OC)-c1ccc(OC)c(=O)cc1[C@@H](NC(C)=O)CC2", "note": "[Colchicine, colchicine]", "values": [{"measurement": "Secondary Composite Endpoint, HR (95% CI)", "setting": "[1]", "result": "1.04 (0.53-2.03); p = 0.919"}, {"measurement": "Stroke, HR (95% CI)", "setting": "[1]", "result": "0.28 (0.03-2.71); p = 0.272"}, {"measurement": "Urgent hospitalization for angina requiring coronary revascularization, HR (95% CI)", "setting": "[1]", "result": "0.63 (0.18-2.24); p = 0.476"}, {"measurement": "All Coronary Revascularizations, % of patients", "setting": "TTI ≥ 8 days, N = 2748", "result": 5.3, "unit": "%"}, {"measurement": "All Coronary Revascularizations, no. of patients", "setting": "TTI ≥ 8 days, N = 2748", "result": 72, "unit": "no."}, {"measurement": "All-cause death, % of patients", "setting": "TTI ≥ 8 days, N = 2748", "result": 1.9, "unit": "%"}, {"measurement": "All-cause death, no. of patients", "setting": "TTI ≥ 8 days, N = 2748", "result": 26, "unit": "no."}, {"measurement": "MI, % of patients", "setting": "TTI ≥ 8 days, N = 2748", "result": 3.8, "unit": "%"}, {"measurement": "MI, no. of patients", "setting": "TTI ≥ 8 days, N = 2748", "result": 52, "unit": "no."}, {"measurement": "Primary composite endpoint, % of patients", "setting": "TTI ≥ 8 days, N = 2748", "result": 5.7, "unit": "%"}, {"measurement": "Primary composite endpoint, no. of patients", "setting": "TTI ≥ 8 days, N = 2748", "result": 77, "unit": "no."}, {"measurement": "Resuscitated cardiac arrest, % of patients", "setting": "TTI ≥ 8 days, N = 2748", "result": 0.1, "unit": "%"}, {"measurement": "Resuscitated cardiac arrest, no. of patients", "setting": "TTI ≥ 8 days, N = 2748", "result": 2, "unit": "no."}, {"measurement": "Secondary Composite Endpoint, % of patients", "setting": "TTI ≥ 8 days, N = 2748", "result": 4.9, "unit": "%"}, {"measurement": "Secondary Composite Endpoint, no. of patients", "setting": "TTI ≥ 8 days, N = 2748", "result": 67, "unit": "no."}, {"measurement": "Stroke, % of patients", "setting": "TTI ≥ 8 days, N = 2748", "result": 0.1, "unit": "%"}, {"measurement": "Stroke, no. of patients", "setting": "TTI ≥ 8 days, N = 2748", "result": 2, "unit": "no."}, {"measurement": "Urgent hospitalization for angina requiring coronary revascularization, % of patients", "setting": "TTI ≥ 8 days, N = 2748", "result": 1.1, "unit": "%"}, {"measurement": "Urgent hospitalization for angina requiring coronary revascularization, no. of patients", "setting": "TTI ≥ 8 days, N = 2748", "result": 15, "unit": "no."}, {"measurement": "All Coronary Revascularizations, HR (95% CI)", "setting": "[2]", "result": "0.81 (0.59-1.10); p = 0.172"}, {"measurement": "All-cause death, HR (95% CI)", "setting": "[2]", "result": "0.90 (0.53-1.51); p = 0.684"}, {"measurement": "MI, HR (95% CI)", "setting": "[2]", "result": "0.93 (0.64-1.35); p = 0.710"}, {"measurement": "Primary composite endpoint, HR (95% CI)", "setting": "[2]", "result": "0.82 (0.61-1.11); p = 0.200"}, {"measurement": "Resuscitated cardiac arrest, HR (95% CI)", "setting": "[2]", "result": "1.02 (0.14-7.22); p = 0.986"}, {"measurement": "Secondary Composite Endpoint, HR (95% CI)", "setting": "[2]", "result": "0.92 (0.66-1.28); p = 0.629"}, {"measurement": "Stroke, HR (95% CI)", "setting": "[2]", "result": "0.19 (0.04-0.84); p = 0.029"}, {"measurement": "Urgent hospitalization for angina requiring coronary revascularization, HR (95% CI)", "setting": "[2]", "result": "0.61 (0.32-1.16); p = 0.131"}, {"measurement": "Time to first positively adjudicated primary endpoint, HR (95% CI)", "setting": "[0-4] days, adjusted Cox model, colchicine vs. placebo", "result": "0.58 (0.36; 0.89)"}, {"measurement": "Time to first positively adjudicated primary endpoint, HR (95% CI)", "setting": "[0-4] days, adjusted Cox model, colchicine vs. placebo, listed as colchicine", "result": 0.58}, {"measurement": "Time to first positively adjudicated primary endpoint, HR (95% CI)", "setting": "[0-4] days, basic Cox model, colchicine vs. placebo", "result": "0.57 (0.37; 0.87)"}, {"measurement": "Time to first positively adjudicated primary endpoint, HR (95% CI)", "setting": "[0-5] days, adjusted Cox model, colchicine vs. placebo, listed as colchicine", "result": "0.68 (0.45-1.02)"}, {"measurement": "Time to first positively adjudicated primary endpoint, HR (95% CI)", "setting": "[0-5] days, basic Cox model, colchicine vs. placebo", "result": "0.67 (0.45; 1.01)"}, {"measurement": "Time to first positively adjudicated primary endpoint, HR (95% CI)", "setting": "[5-20] days, adjusted Cox model, colchicine vs. placebo", "result": "0.84 (0.64; 1.11)"}, {"measurement": "Time to first positively adjudicated primary endpoint, HR (95% CI)", "setting": "[5-20] days, basic Cox model, colchicine vs. placebo", "result": "0.83 (0.63; 1.09)"}, {"measurement": "Time to first positively adjudicated primary endpoint, HR (95% CI)", "setting": "[6-30] days, adjusted Cox model, colchicine vs. placebo", "result": "0.35 (0.60, 1.05)"}, {"measurement": "Time to first positively adjudicated primary endpoint, HR (95% CI)", "setting": "[6-30] days, basic Cox model, colchicine vs. placebo", "result": "0.78 (0.59; 1.03)"}, {"measurement": "reduction in the risk of the composite primary endpoint", "setting": "colchicine initiated between days 0 and 3, vs placebo", "result": 48, "unit": "%"}, {"measurement": "Positively adjudicated primary endpoint No, % of patients", "setting": "[3]", "result": "(95.6%)"}, {"measurement": "Positively adjudicated primary endpoint No, no. of patients", "setting": "[3]", "result": 734, "unit": "no."}, {"measurement": "Positively adjudicated primary endpoint Yes, % of patients", "setting": "[3]", "result": "(4.4%)"}, {"measurement": "Positively adjudicated primary endpoint Yes, no. of patients", "setting": "[3]", "result": 34, "unit": "no."}, {"measurement": "Positively adjudicated primary endpoint No, % of patients", "setting": "[4]", "result": "(95.3%)"}, {"measurement": "Positively adjudicated primary endpoint No, no. of patients", "setting": "[4]", "result": 819, "unit": "no."}, {"measurement": "Positively adjudicated primary endpoint Yes, % of patients", "setting": "[4]", "result": "(4.7%)"}, {"measurement": "Positively adjudicated primary endpoint Yes, no. of patients", "setting": "[4]", "result": 40, "unit": "no."}, {"measurement": "Positively adjudicated primary endpoint No, % of patients", "setting": "[5]", "result": "(94.1%)"}, {"measurement": "Positively adjudicated primary endpoint No, no. of patients", "setting": "[5]", "result": 1463, "unit": "no."}, {"measurement": "Positively adjudicated primary endpoint Yes, % of patients", "setting": "[5]", "result": "(5.9%)"}, {"measurement": "Positively adjudicated primary endpoint Yes, no. of patients", "setting": "[5]", "result": 91, "unit": "no."}, {"measurement": "Positively adjudicated primary endpoint No, % of patients", "setting": "[6]", "result": "(94.2%)"}, {"measurement": "Positively adjudicated primary endpoint No, no. of patients", "setting": "[6]", "result": 1378, "unit": "no."}, {"measurement": "Positively adjudicated primary endpoint Yes, % of patients", "setting": "[6]", "result": "(5.8%)"}, {"measurement": "Positively adjudicated primary endpoint Yes, no. of patients", "setting": "[6]", "result": 85, "unit": "no."}, {"measurement": "reduction of secondary efficacy endpoint (CV death, resuscitated cardiac arrest, MI or stroke)", "setting": "early initiation of low-dose colchicine", "result": 45, "unit": "%"}]}
